We go through eight molecules from PubChem BioAssay (NCI).

Some test systems named below: A549 NSCLC; KM12 colon; M14 melanoma; MOLT-4 leukemia; SF-539 CNS; SK-MEL-28 melanoma; T-47D breast; U251 CNS; UACC-257 melanoma; RPMI-8226 leukemia.
Assay in all cases: growth of human tumour cells (NCI), 48 h

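96-well plates; 48 h exposure; 5 concentrations. Endpoints by linear interpolation between flanking doses. Not reached: highest tested concentration assigned. At the GI50, growth is halved. The concentration for full growth arrest is given as TGI.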 Bounds are passed on as bounds.

With `COc1cc(/C=C2\SC(N3CCCCC3)=NC2=O)ccc1OCCCCCCOc1ccc(/C=C2\SC(N3CCCCC3)=NC2=O)cc1OC`, the GI50 in the assay on A549 NSCLC is 11.8 µM; in the assay on KM12 colon, 11.1 µM; with M14 melanoma, 21.9 µM; with MOLT-4 leukemia it was 17.4 µM; in the assay on SF-539 CNS, 6.95 µM; in the assay with SK-MEL-28 melanoma, 15.7 µM. Also, the GI50 in the assay with T-47D breast is 8.9 µM; in the assay with U251 CNS it was 4.61 µM; in the assay on UACC-257 melanoma it was 17.4 µM. Moreover, the TGI in the assay on A549 NSCLC was 30.9 µM; in the assay with KM12 colon, 25 µM; in the assay on M14 melanoma, greater than 100 µM; in the assay with MOLT-4 leukemia it was greater than 100 µM; with SF-539 CNS, 24.2 µM; in the assay on SK-MEL-28 melanoma, 43.9 µM. In addition, the TGI in the assay on T-47D breast is 44.5 µM; in the assay with U251 CNS, 16.1 µM; in the assay on UACC-257 melanoma, 47.6 µM.

With `Cc1cc(S(N)(=O)=O)c(S/C(=N\NS(=O)(=O)c2ccccc2)c2ccc(Cl)cc2)cc1Cl`, the GI50 was greater than 100 µM in the assay on A549 NSCLC; greater than 100 µM in the assay on KM12 colon; 87.9 µM in the assay with M14 melanoma; 34.4 µM with MOLT-4 leukemia; greater than 100 µM in the assay with SF-539 CNS; greater than 100 µM in the assay on SK-MEL-28 melanoma. In addition, the results for the GI50 in the assay with T-47D breast, in the assay on U251 CNS and with UACC-257 melanoma were greater than 100 µM, greater than 100 µM and 54.5 µM, respectively. The TGI in the assay on A549 NSCLC, in the assay with KM12 colon, in the assay on M14 melanoma, with MOLT-4 leukemia, in the assay with SF-539 CNS and in the assay on SK-MEL-28 melanoma was greater than 100 µM in each case. Besides, the TGI in the assay on T-47D breast, in the assay with U251 CNS and in the assay with UACC-257 melanoma was greater than 100 µM in each case.

Regarding `COc1cc(-c2nn(-c3cccc(NC(=O)CCN4CCN(c5ccccc5)CC4)c3)cc2-c2ccncc2)ccc1Cl`, the GI50 with A549 NSCLC was 4.91 µM; in the assay with KM12 colon it was 2.45 µM; in the assay with M14 melanoma it was 2.31 µM; in the assay on MOLT-4 leukemia, 2.89 µM; in the assay with SF-539 CNS, 2.53 µM; in the assay with SK-MEL-28 melanoma, 3.19 µM. Also, the values for the GI50 in the assay on T-47D breast, in the assay on U251 CNS and with UACC-257 melanoma were 2.09 µM, 3.13 µM and 5.29 µM, respectively. The TGI was greater than 100 µM with A549 NSCLC; 9.97 µM in the assay on KM12 colon; 7.01 µM in the assay with M14 melanoma; greater than 100 µM in the assay on MOLT-4 leukemia; 18.4 µM with SF-539 CNS; greater than 100 µM in the assay on SK-MEL-28 melanoma. Also, the TGI in the assay on T-47D breast was greater than 100 µM; in the assay on U251 CNS it was greater than 100 µM; with UACC-257 melanoma it was 95.5 µM.

As for `COc1ccc(C2NC(=S)NC3=C2CCOc2c3ccc3ccccc23)cc1` (stereo not given), the GI50 is 39 µM in the assay on A549 NSCLC; 27 µM with KM12 colon; greater than 100 µM in the assay with M14 melanoma; 87.1 µM in the assay with MOLT-4 leukemia; 12.8 µM in the assay on RPMI-8226 leukemia; greater than 100 µM with SK-MEL-28 melanoma. Further, the GI50 in the assay on T-47D breast was 8.5 µM; with U251 CNS it was greater than 100 µM; with UACC-257 melanoma, 16.4 µM. Moreover, the TGI in the assay on A549 NSCLC, in the assay with KM12 colon, in the assay with M14 melanoma, with MOLT-4 leukemia, in the assay with RPMI-8226 leukemia and with SK-MEL-28 melanoma was greater than 100 µM throughout. Further, the TGI in the assay on T-47D breast, in the assay with U251 CNS and in the assay with UACC-257 melanoma was greater than 100 µM throughout.

For the molecule `O=CN1N=C(c2cccc(Nc3ccnc4cc(Cl)ccc34)c2)CC1c1ccc(Cl)cc1` (stereo not given), the GI50 is 0.941 µM in the assay on A549 NSCLC; 0.591 µM with KM12 colon; 1.04 µM in the assay on M14 melanoma; 1.92 µM in the assay on MOLT-4 leukemia; 2.45 µM in the assay on RPMI-8226 leukemia; 3.78 µM in the assay with SF-539 CNS. Further, the figures for the GI50 with SK-MEL-28 melanoma, in the assay on T-47D breast and with U251 CNS were 5.63 µM, 2.63 µM and 1.29 µM, respectively. Moreover, the TGI with A549 NSCLC is greater than 100 µM; in the assay on KM12 colon, greater than 100 µM; in the assay with M14 melanoma, greater than 100 µM; in the assay on MOLT-4 leukemia it was 80.3 µM; in the assay with RPMI-8226 leukemia it was greater than 100 µM; in the assay on SF-539 CNS, 69.5 µM. Moreover, the TGI in the assay on SK-MEL-28 melanoma is greater than 100 µM; in the assay with T-47D breast it was greater than 100 µM; in the assay on U251 CNS, 20.7 µM.

As for `OCC(O)C(O)C(O)C(O)c1nnc2c(-c3ccccc3)nc3ccccc3n12` (stereo not given), the GI50 in the assay with A549 NSCLC is greater than 100 µM; with KM12 colon it was greater than 100 µM; in the assay on M14 melanoma, greater than 100 µM; in the assay on RPMI-8226 leukemia, 67.2 µM; in the assay with SF-539 CNS, greater than 100 µM; in the assay on SK-MEL-28 melanoma, greater than 100 µM. The GI50 in the assay with T-47D breast is 28.6 µM; in the assay with U251 CNS it was greater than 100 µM; in the assay with UACC-257 melanoma, greater than 100 µM. Besides, the TGI with A549 NSCLC, with KM12 colon, in the assay on M14 melanoma, with RPMI-8226 leukemia, in the assay with SF-539 CNS and in the assay on SK-MEL-28 melanoma was greater than 100 µM each time. Moreover, the TGI in the assay on T-47D breast, in the assay on U251 CNS and with UACC-257 melanoma was greater than 100 µM each time.

Take `CC[C@H]1OC(=O)[C@H](C)[C@@H](O[C@H]2C[C@@](C)(OC)[C@@H](O)[C@H](C)O2)[C@H](C)[C@@H](O[C@@H]2O[C@H](C)C[C@H](N(C)C)[C@H]2O)[C@](C)(OC)C/C(C)=C2/O[C@@]1(C)C=C2C`: the GI50 is 1.63 µM in the assay on A549 NSCLC; 1.63 µM in the assay with KM12 colon; 1.96 µM in the assay on MOLT-4 leukemia; 1.9 µM in the assay with RPMI-8226 leukemia; 1.62 µM in the assay on SF-539 CNS; 1.89 µM in the assay on SK-MEL-28 melanoma. Further, the GI50 in the assay with T-47D breast is 1.96 µM; in the assay on U251 CNS, 1.75 µM; with UACC-257 melanoma it was 1.83 µM. For the same molecule, the TGI with A549 NSCLC came out at 3.42 µM; in the assay with KM12 colon, 3.11 µM; in the assay on MOLT-4 leukemia it was 4.49 µM; with RPMI-8226 leukemia, 5.14 µM; with SF-539 CNS, 2.99 µM; in the assay on SK-MEL-28 melanoma, 3.32 µM. The TGI in the assay on T-47D breast came out at 4.56 µM; in the assay with U251 CNS it was 3.54 µM; in the assay with UACC-257 melanoma it was 3.62 µM.

As to `OCCN(CO)CO`, the TGI with A549 NSCLC, in the assay on KM12 colon, with M14 melanoma, with RPMI-8226 leukemia, with SF-539 CNS and in the assay with SK-MEL-28 melanoma was greater than 100 µM throughout. The TGI with T-47D breast, in the assay with U251 CNS and in the assay with UACC-257 melanoma was greater than 100 µM in each case.
